The record followed here is patent publication EP1247803A2, “Indolinone compounds suitable for modulation of protein kinases” (Sugen, Inc., priority 1996, dated 1998).

The target in this assay is T1, FLK-1 receptor (Mus musculus, UniProt P35918).
T1 construct: expressed in transfected cells; host or cells: NIH3T3 C7#3
T1 sequence (P35918 20-1345): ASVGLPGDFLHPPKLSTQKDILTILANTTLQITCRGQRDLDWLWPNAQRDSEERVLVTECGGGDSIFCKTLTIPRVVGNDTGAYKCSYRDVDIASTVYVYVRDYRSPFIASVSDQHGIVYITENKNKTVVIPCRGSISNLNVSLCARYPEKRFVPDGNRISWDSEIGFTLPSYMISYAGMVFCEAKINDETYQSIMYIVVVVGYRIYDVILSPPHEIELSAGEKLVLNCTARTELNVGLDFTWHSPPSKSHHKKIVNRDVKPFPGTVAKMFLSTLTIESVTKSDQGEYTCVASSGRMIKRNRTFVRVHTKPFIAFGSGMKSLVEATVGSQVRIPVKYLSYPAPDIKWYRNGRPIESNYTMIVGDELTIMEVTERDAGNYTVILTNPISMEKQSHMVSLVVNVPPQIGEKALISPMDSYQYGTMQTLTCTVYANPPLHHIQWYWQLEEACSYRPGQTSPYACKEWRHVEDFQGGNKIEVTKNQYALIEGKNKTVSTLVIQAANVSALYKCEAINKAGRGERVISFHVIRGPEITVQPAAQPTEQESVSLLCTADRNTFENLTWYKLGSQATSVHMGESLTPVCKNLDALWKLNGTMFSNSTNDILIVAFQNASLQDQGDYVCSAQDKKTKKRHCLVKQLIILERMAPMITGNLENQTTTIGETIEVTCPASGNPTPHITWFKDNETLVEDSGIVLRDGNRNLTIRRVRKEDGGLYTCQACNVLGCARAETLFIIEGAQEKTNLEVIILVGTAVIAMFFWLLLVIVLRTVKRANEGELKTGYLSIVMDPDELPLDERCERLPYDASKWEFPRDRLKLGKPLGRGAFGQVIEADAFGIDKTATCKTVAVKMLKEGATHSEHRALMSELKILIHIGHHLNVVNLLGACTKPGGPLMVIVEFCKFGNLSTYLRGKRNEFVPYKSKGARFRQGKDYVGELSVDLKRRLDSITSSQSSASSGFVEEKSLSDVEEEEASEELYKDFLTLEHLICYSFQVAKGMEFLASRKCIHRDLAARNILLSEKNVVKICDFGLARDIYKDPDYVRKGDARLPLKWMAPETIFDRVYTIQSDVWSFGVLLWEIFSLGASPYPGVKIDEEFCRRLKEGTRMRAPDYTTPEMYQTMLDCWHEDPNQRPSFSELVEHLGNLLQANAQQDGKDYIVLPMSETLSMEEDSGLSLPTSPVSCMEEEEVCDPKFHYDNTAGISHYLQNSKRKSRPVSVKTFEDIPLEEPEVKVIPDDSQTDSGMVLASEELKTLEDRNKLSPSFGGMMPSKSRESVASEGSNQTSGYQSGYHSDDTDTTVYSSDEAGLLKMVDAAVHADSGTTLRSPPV
Briefly: FLK-1 ELISA (kinase activity of the FLK-1 receptor in FLK-1/NIH3T3 cells, VEGF stimulated). The class given is cell-based. In a few lines: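 An ELISA using affinity-purified rabbit anti-FLK-1 antiserum on anti-rabbit IgG-coated plates measured VEGF-stimulated FLK-1 kinase activity. NIH3T3 C7#3 cells carrying FLK-1 were serum-starved (0.1% FBS) overnight, then exposed to compound (final 1:200 dilution, 0.5% DMSO) for two hours at 37 °C.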
A general note: An ELISA detects its analyte on a solid surface through an enzyme-linked reagent.
`O=C1Nc2ccc(S(=O)(=O)Nc3ccc(C(F)(F)F)cc3)cc2C1=Cc1ccc(O)c(Br)c1` [10734/E09]: the “Fik Kinase %Inhibition” value was determined as 8.0%.
Then `O=C1Nc2ccc(I)cc2C1=Cc1c[nH]c2ccccc12` [10717/B06], with 5.4%; and `O=C1Nc2ccc(S(=O)(=O)Nc3ccc(C(F)(F)F)cc3)cc2C1=Cc1cc(Br)cc(Br)c1O` [10734/E07], with 27.9%.
For `O=C1Nc2ccc(S(=O)(=O)N3CCOCC3)cc2C1=Cc1ccc2ccccc2c1O` [10718/F04], the “Fik Kinase %Inhibition” value is listed as 9.4%.
Regarding `COc1ccc(C=C2C(=O)Nc3c(Br)cc(Br)cc32)c(OC)c1` [10719/A04], the “Fik Kinase %Inhibition” value is recorded as 19.2%.
As for `O=C1Nc2ccc(S(=O)(=O)N3CCOCC3)cc2C1=Cc1cc(Br)cc(Br)c1O` [10734/F07], the “Fik Kinase %Inhibition” value is recorded as 6.6%.
Turning to `CCOC(=O)CCc1c(C(=O)OCC)[nH]c(C=C2C(=O)Nc3ccc(CCCl)cc32)c1CC(=O)OCC` [10718/G05], the “Fik Kinase %Inhibition” value was found to be 3.7%.
